Calls of active or inactive are those of the source.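 The calls were made as follows: active = IC50 below a set limit in both duplicate runs and mean IC50 below a set limit; inconclusive = IC50 above a set limit in only one run; inactive = IC50 above a set limit in both runs and mean.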
Test system: Jurkat FADD-/- TNF-alpha necroptosis, CellTiter-Glo ATP, 24 h
Experiment: inhibitors of TNF-alpha triggered necroptosis, potency, dose response, cell-based, Jurkat FADD-/-, duplicate IC50 (AID 463178)

SMILES | IC50
COc1ccc(/C=N/Nc2nc3ccccc3s2)cc1O | > 20 µM (inactive)
O=C(CN1CCN(C(c2ccccc2)c2ccccc2)CC1)N1N=CCC1c1ccccc1 (stereo not drawn) | > 20 µM (inactive)
COC(C(=O)Nc1ccccc1F)c1ccccc1 (stereo not drawn) | 4.25 µM
Cc1csc(SCC(=O)NC(=O)NC2CCCC2)n1 | 12.2 µM
COC(=O)c1ccn(Cc2ccccc2Cl)n1 | 0.881 µM
Cc1ccc(C2CC(=O)NC(SCC(=O)Nc3nccs3)=C2C#N)cc1 (stereo not drawn) | > 20 µM (inactive)
O=C(CSc1nnc2n1CCCN2C(=S)Nc1ccc(Cl)cc1)c1ccccc1 | > 20 µM (inactive)
CN=C(Cc1ccccc1)C1=C(O)CC(C)(C)CC1=O | 4.76 µM
O=C(C1=NNCC1c1ccccc1)C1CO1 (stereo not drawn) | 4.94 µM
Clc1ccc(C2=NNC(=NCc3ccccc3)SC2)cc1 | > 20 µM (inactive)
C=C(C)CSc1nnc2n(Cc3ccccc3)c(=O)c3c4c(sc3n12)CCC4 | > 20 µM (inactive)
CC(=O)N(CC1CCCO1)c1nnc(-c2cnccn2)s1 (stereo not drawn) | 5.94 µM
O=[N+]([O-])c1ccc(Nc2cccc(F)c2)nc1 | 19.6 µM
O=[N+]([O-])c1ncn(Cc2ccccc2Cl)n1 | 2.51 µM
COc1ccc(/C=N/Nc2ccccn2)cc1OC | > 20 µM (inactive)
O=C1c2ccsc2SCCN1Cc1ccccc1 | 6.07 µM
COc1ccc(-n2c(C)nc3sc4c(c3c2=O)CCC4)cc1 | 4.17 µM
Clc1ccc(COn2ccnc2)cc1Cl | 1.97 µM
O=C(Nc1ccc(Cl)c(Cl)c1)N1N=CCC1c1ccccc1 (stereo not drawn) | 11.8 µM
Cc1ccc2[nH]c3c(c2c1)CCc1cn[nH]c1-3 | 1.14 µM

SMILES | IC50
COc1ccc(NC(=S)N2N=CCC2c2ccccc2)cc1 (stereo not drawn) | 12.9 µM
CCn1c(O)c(C=NCc2ccccc2)sc1=S | > 20 µM (inactive)
Cc1csc(Nc2ccccc2)[n+]1-c1ccccc1 | > 20 µM (inactive)
O=C(CSc1ccc(Cl)cc1)N1N=CCC1c1ccccc1 (stereo not drawn) | 16.4 µM
O=C(Cc1c(F)cccc1Cl)Nc1ncc([N+](=O)[O-])s1 | > 20 µM (inactive)
O=C1NC(Cc2c[nH]c3ccccc23)C(=O)N1CCOc1ccc(F)cc1 (stereo not drawn) | 10 µM
CC(=O)OC(C(=O)NC1CCCCC1)c1ccc(Cl)c(Cl)c1 (stereo not drawn) | > 20 µM (inactive)
O=C(C1=NNCC1c1ccc(Cl)cc1)C1CO1 (stereo not drawn) | 7.86 µM
CC(=O)N(CC1CCCO1)c1nnc(-c2ccccn2)s1 (stereo not drawn) | 9.72 µM
Cc1cc(N/N=C/c2ccncc2)nc2ccccc12 | > 20 µM (inactive)
CCC(C)c1ccc(O)c(NC(=O)c2cncc(Br)c2)c1 (stereo not drawn) | > 20 µM (inactive)
N#CCSc1nc2sc3c(c2c(=O)n1C1CCCCC1)CCCC3 | > 20 µM (inactive)
Brc1ccc(COn2ccnc2)cc1 | 6.31 µM
COc1cc(/C=N/Nc2nc3ccccc3[nH]2)cc(Br)c1OCC(=O)N(C)C | > 20 µM (inactive)
Cc1nnsc1C(=O)NNc1c(Cl)cccc1Cl | 5.04 µM
O=[N+]([O-])c1ccc(Nc2ccc(Cl)cc2)nc1 | > 20 µM (inactive)
OC(c1ccccc1)c1nc2ccccc2s1 (stereo not drawn) | 14.6 µM
O=C(CSCc1ccc([N+](=O)[O-])cc1)NC1CCCCCC1 | 10 µM
Cc1nn(Cc2c(F)cccc2Cl)c(C)c1[N+](=O)[O-] | > 20 µM (inactive)
Clc1ccc2[nH]c3c(c2c1)CCc1cn[nH]c1-3 | 5.28 µM

SMILES | IC50
CC(C)c1ccc(O)c(NC(=O)c2cncc(Br)c2)c1 | > 20 µM (inactive)
COC(C(=O)Nc1ccc(F)cc1)c1ccccc1 (stereo not drawn) | 2.15 µM
O=[N+]([O-])c1ncn(Cc2c(Cl)cccc2Cl)n1 | 13.1 µM
O=C(Nc1ccc(Cl)cn1)C1COc2ccccc2O1 (stereo not drawn) | > 20 µM (inactive)
CC(=O)Nc1ccn(Cc2c(F)cccc2Cl)n1 | 3.52 µM
COC(C(=O)Nc1ccc(F)cc1F)c1ccccc1 (stereo not drawn) | 0.969 µM
Cc1ccc(NC(=O)CSCc2ccc(F)cc2)cc1 | > 20 µM (inactive)
CC(Nc1nc(-c2ccc3c(c2)NC(=O)CO3)cs1)c1ccccc1 (stereo not drawn) | > 20 µM (inactive)
O=[N+]([O-])c1ccc(Nc2ccccc2)nc1 | 15.3 µM
O=C(CSc1nnnn1-c1ccccc1)N1N=CCC1c1ccccc1 (stereo not drawn) | 6.27 µM
COc1ccc(/C=C2\N=C(SC)NC2=O)cc1 | > 20 µM (inactive)
Fc1ccc(NC(=S)N2N=CCC2c2ccccc2)cc1 (stereo not drawn) | 3.38 µM
O=C1CC(c2ccccc2)C(=O)N1c1cccc(O)c1 (stereo not drawn) | 12.9 µM
c1ccc(C2CC3CC4(CCCC4)N2O3)cc1 (stereo not drawn) | 3.81 µM
COC(C(=O)Nc1ccc(F)c(F)c1)c1ccccc1 (stereo not drawn) | 1.52 µM
CN(CC1CCCO1)S(=O)(=O)c1ccc(C(=O)Nc2nccs2)cc1 (stereo not drawn) | 12.9 µM
O=S(=O)(Nc1ccccc1)c1ccc2c(c1)CCO2 | 9.75 µM
COc1ccc(-n2c(C)nc3sc4c(c3c2=O)CCCC4)cc1 | 13.9 µM
